Reference: ChEMBL document CHEMBL1129579, “Carbohydrates in an acidic multivalent assembly: nanomolar P-selectin inhibitors” (J Med Chem, 1996)

Biological target: T1, P-selectin (Homo sapiens, UniProt P16109)
T1 sequence (P16109 whole entry): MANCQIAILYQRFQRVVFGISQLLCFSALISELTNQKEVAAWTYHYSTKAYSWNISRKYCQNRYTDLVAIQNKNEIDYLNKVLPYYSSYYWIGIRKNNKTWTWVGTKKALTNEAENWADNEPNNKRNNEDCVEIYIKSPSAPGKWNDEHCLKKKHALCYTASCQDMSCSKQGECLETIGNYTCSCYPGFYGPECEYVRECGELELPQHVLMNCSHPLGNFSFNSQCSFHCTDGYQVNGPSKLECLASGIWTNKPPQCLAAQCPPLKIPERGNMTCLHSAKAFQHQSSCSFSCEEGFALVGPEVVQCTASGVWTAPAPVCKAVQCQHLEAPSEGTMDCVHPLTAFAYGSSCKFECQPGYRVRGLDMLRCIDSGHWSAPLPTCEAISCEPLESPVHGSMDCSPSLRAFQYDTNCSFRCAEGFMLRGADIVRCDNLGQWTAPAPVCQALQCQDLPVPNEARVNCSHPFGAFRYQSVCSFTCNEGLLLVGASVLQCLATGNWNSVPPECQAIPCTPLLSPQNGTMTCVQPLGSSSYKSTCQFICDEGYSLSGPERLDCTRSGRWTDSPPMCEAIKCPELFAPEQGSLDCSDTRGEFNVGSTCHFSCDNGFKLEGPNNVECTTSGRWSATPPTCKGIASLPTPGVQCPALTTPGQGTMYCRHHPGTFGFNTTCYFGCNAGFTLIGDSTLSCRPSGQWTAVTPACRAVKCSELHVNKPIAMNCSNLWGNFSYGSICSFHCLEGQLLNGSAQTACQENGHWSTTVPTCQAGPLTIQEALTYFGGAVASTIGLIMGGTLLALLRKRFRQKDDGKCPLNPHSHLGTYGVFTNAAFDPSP
Assay: Inhibitory activity against Selectin P IgG chimera binding to HL-60 cells, by binding to Selectin P
Assay type: cell-based

| IC50 [nM] | Compound |
| --- | --- |
| 2 | CCCCCCCCCCCCC#CC#CCCCCCCCCC(=O)NCCSCCCN(C(C)=O)[C@@H]1O[C@@H](CO)[C@@H](O[C@@H]2O[C@@H](CO)[C@H](O)[C@H](OCC(=O)O)[C@@H]2O)[C@H](O[C@@H]2O[C@@H](C)[C@@H](O)[C@H](O)[C@@H]2O)[C@@H]1O |
| 500 | CCCCCCCCCCCCC#CC#CCCCCCCCCC(=O)NCCO |
